Earlier results as cited in US20200101067A1 (IRR, Inc., priority 2013, published 2020).
Where two headings read alike, the source gives them in different places.

What was measured:
[1] = not given; remark: listed apart in the source
H1 receptor = H1 receptor (Homo sapiens, UniProt P35367); conditions: acidic pH, inflamed tissue
Chain of H1 receptor (P35367 whole entry): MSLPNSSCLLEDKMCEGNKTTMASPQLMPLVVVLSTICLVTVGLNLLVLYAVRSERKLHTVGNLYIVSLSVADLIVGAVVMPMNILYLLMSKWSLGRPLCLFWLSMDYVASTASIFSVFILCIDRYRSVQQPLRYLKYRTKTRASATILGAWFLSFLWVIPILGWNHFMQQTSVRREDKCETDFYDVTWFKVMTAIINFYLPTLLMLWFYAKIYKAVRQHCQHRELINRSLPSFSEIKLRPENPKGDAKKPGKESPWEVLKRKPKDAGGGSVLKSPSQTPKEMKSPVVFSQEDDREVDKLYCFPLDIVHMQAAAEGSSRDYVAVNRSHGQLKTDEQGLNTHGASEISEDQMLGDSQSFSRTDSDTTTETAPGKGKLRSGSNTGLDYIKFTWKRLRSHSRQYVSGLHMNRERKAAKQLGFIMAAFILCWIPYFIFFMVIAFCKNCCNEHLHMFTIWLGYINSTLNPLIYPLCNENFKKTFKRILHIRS

SMILES | Rhinovirus-induced ICAM-1 and cytokine expression and viral replication (human rhinovirus; airway epithelial cells) | ICAM-1, IL-6, IL-8, TLR3 expression and NF-kappa B activation (human rhinovirus; stated as in vivo) | Principal side effect at higher doses (higher doses, up to 30 mg/day) | Dose that can be safely administered (studies in humans) | Time to steady state level ([1]; in vivo) [h] | Enhanced receptor affinity over first generation mepyramine / first generation molecules (H1 receptor) [×] | Enhanced receptor affinity over first generation mepyramine / first generation molecules (H1 receptor; listed as levocetirizine) | Eosinophil migration (IL-4, IL-6, and IL-8) | Inflammatory mediators IL-4, IL-6, and IL-8 (IL-4, IL-6, and IL-8) | Dose without clinically important adverse experiences (adult patients, 22 weeks) | Dose without clinically important adverse experiences (short-term studies, approximately one week) | Plasma concentration area under the curve profile, IV 7 mg vs approved 10 mg oral tablet ([1]; IV 7 mg) | Linear pharmacokinetics to dose ([1]; in vivo) [mg] | Steady-state level reached ([1]; in vivo) | Time to peak plasma level ([1]; in vivo) [h] | Steady-state level reached ([1]; in vivo, listed as montelukast) | Effect of a standard meal on oral bioavailability and Cmax ([1]; oral)
O=C(O)COCCN1CCN([C@H](c2ccccc2)c2ccc(Cl)cc2)CC1 [Levocetirizine, levocetirizine] | inhibits | decrease | Sedation | up to 30 mg/day | 40 | 5 | up to 5 × | decrease | decrease | – | – | – | – | – | – | – | –
CC(C)(O)c1ccccc1CC[C@@H](SCC1(CC(=O)O)CC1)c1cccc(/C=C/c2ccc3ccc(Cl)cc3n2)c1 [Montelukast, montelukast] | – | – | – | – | – | – | – | – | – | up to 200 mg/day | up to 900 mg/day | comparable | ≤ 50 | less than two | 3 to 4 | two | not affected
